Test results as given in patent US20250100962A1 (CITY OF HOPE, priority 2023, published 2025).
“Also recorded” adds a separate entry of the source.

Key:
C2C12 myoblasts [1] = assay: EdU proliferation assay in C2C12 myoblasts; format: cell-based, mouse
Protocol: Cells were seeded at 0.2×10^5 concentration and treated with desired compounds and controls overnight. The seeding density was decided after trying several densities and choosing the one that after 24 h lead to visible, not clumping cells. 10 μM 5-ethynyl-2′-deoxyuridine (EdU) incorporation was performed during 4 h according to the kit protocol and detected by Click-iT Imaging Kit with Alexa 488 Fluorophore (Invitrogen). 1 μg/ml 4′,6′-diamidine-2′-phenylindole dihydrochloride (DAPI) was used to label for nuclei. Total number of EdU+ cells was counted from 8 representative fields at 20× and the rate of proliferation was calculated as percentage of EdU+/DAPI.

3T3-L1 preadipocytes = assay: Clock and Wnt gene expression in 3T3-L1 cells; format: cell-based; settings: RT-qPCR
Protocol: RNA extraction and RT-qPCR analysis. PureLink RNA Mini Kit (Invitrogen) were used to isolate total RNA from cells. cDNA was generated using Revert Aid RT kit (ThermoFisher) and quantitative PCR was performed using SYBR Green Master Mix (Thermno Fisher) in triplicates on ViiA 7 Real-Time PCR System (Applied Biosystems). Relative expression levels were determined using the comparative Ct method with normalization to 361B4 as internal control.

[2] = tested on: U2OS cells containing Per2::dLuc luciferase reporter; assay: Real-time bioluminescence monitoring of Per2::Luciferase reporter in U2OS cells (LumiCycle); format: cell-based; settings: for Modulatory Property: clock-modulatory classification
Protocol: U2OS cells or mouse fibroblasts (MF) containing a Per2-luciferase reporter (Yoo et al., 2004) were seeded at 4×10^5 concentration on 24 well plates and treated at 90% confluence with 1 ml 1×Fresh explant medium with desired compounds and controls. The seeding density was decided after trying several densities and choosing the one that after 24 h lead to 90% confluence. 1× Fresh explant medium was produced using 50% 2×DMEM buffer stock [DMEM powder (Gibco—Thermo Fisher CN: 12800-017), Sterile MilliQ water, pH7 1 M HEPES (Gibco—Thermo Fisher CN:15630080) and 7.5% Sodium Bicarbonate (Gibco—Thermo Fisher CN: 25080094)], 10% FBS (Cytiva), 37.9% Sterile MiliQ water, 1% PSG 100× (Gibco—Thermo Fisher CN: 10378016), 0.1% Sodium Hydroxixe (NaOH) 100 mM (Fishel Chemical CN: S318-500), 1% XenoLight D-Luciferin—Monopotassium Salt Bioluminiscent Substrate 100 mM (PerkinElmer CN: 122799). Treated cells were introduced to the LumiCycle96 (ActiMetrics) were they were cultured and Per2-luciferafe reporter luminescence was measured for 6 days. Raw and subtracted results for 5 days were exported and data was calculated as luminescence counts per second.

C2C12 myoblasts [3] = assay: Wound healing assay of C2C12 myoblasts; format: cell-based, mouse; settings: 8 and 24 hours; 0.2 to 1 μM; vs DMSO
Protocol: Cells were seeded at 12×10^5 concentration on 6 well plates until 90% coverage and treated with compounds as indicated and controls while maintained 10% FBS 1% PSG DMEM. Scratch wounds were made with disposable cells scrapers and pictures were taken at hours 0, 4, 8, 24 and 48 following scratch. The results were measured as percentage coverage over original wound area based on image quantification. Area of wound closure was measured using Image J software.

C57/BL6 wild-type mice = assay: Cardiotoxin-induced acute muscle injury, intramuscular injection into TA muscle; format: in vivo, mouse; settings: for eMyHC staining (new myofiber formation): after cardiotoxin injury, local intramuscular injection
From the text: FIGS. 42A-42B. CHX and CM002 promote nascent myofiber formation upon acute muscle injury. To determine whether the effect of CHX and CM002 on promoting myogenesis leads to improved muscle regeneration in vivo, we tested local intramuscular injection into TA muscle following acute injury by cardiotoxin in normal C57/BL6 wild-type mice. […] Collectively, these findings indicate that these clock-activating molecules are capable of inducing myogenic response via local administration leading to sustained new myofiber formation following acute muscle injury.

Wnt signaling activity = assay: TOPFlash luciferase reporter (Wnt activity) in U2OS cells; format: cell-based; settings: for TOPFlash reporter activity, Wnt3a-containing media: Wnt3a stimulated; for TOPFlash Wnt activity, basal condition: without Wnt stimulation
Protocol: FIGS. 20A-20F. Effect of CM002 on activating circadian clock function. […] We tested the effect of CM002 from 0.2-5 μM on clock modulation in […] cells containing Per2::dLuc reporter using Lumicycle by monitoring chemiluminescence recordings for 6 days. The results were presented using the average original luminescence (FIG. 20A) or baseline-adjusted presentation (FIG. 20B). […] Based on the known clock effect on stimulating Wnt signaling activity, we used a TCF4 promoter-driven TOPFlash luciferase reporter to determine the effect of CM002 on Wnt pathway and compared this activity with CHX.
TOPFlash luciferase reporter assay. M50 Super 8×TOPFlash luciferase reporter containing Wnt-responsive TCF bindings sites was a gift from Randall Moon (Veeman, Slusarski, Kaykas et al., 2003) obtained from Addgene (Addgene plasmid #12456). Cells were seeded and grown overnight, and cell transfection was performed at 90% confluency. 24 hours following transfection, cells were treated using 10% Wnt3a conditioned media obtained from L Wnt-3A cell line (ATCC CRL-2647) to induce luciferase activity. Luciferase activity was assayed using Dual-Luciferase Reporter Assay Kit (Promega) in 96-well black plates. TOPFlash luciferase reporter luminescence was measured on microplate reader (TECAN infinite M200pro) and normalized to control FOPFlash activity, as previously described (Guo et al., 2012). The mean and standard deviation values were calculated for each well and graphed.

mdx primary myoblasts = assay: EdU proliferation in mdx primary myoblasts; format: cell-based, mouse; settings: 0.5-1 μM; 6 hours
From the text: FIGS. 16A-16B. Pro-myogenic effect of chlorhexidine on dystrophin-deficient mdx primary myoblasts. FIG. 16A: We used primary myoblasts isolated from male mdx mice as a cellular model to test the effect of CHX on myogenesis. […] Both of the pro-myogenic and proliferative effects of CHX observed in mdx primary myoblasts were consistent with prior findings from C2C12 myoblasts. Additional validations of these effects are on-going using myoblasts derived from human DMD patients.

mdx mice = format: in vivo; settings: 10 mg/kg IP daily, 3 doses; vs non-treated or DMSO
Protocol: FIGS. 48A-48C. Systemic delivery of CM002 by intraperitoneal injection improves muscle strength in dystrophic mdx mice. Based on the PK analysis, we determined the maximal lethal dose in mdx mice via daily intraperitoneal injections using escalating doses. Starting doses were tested at 10, 20 and 30 mg/Kg/day, for 3 consecutive days in male or female mdx mice (FIG. 48A).

[4] = U2OS Per2 luciferase reporter, recording 5-6 days, vs DMSO

| Compound | increase of proliferation (EdU incorporation) (C2C12 myoblasts [1]; both concentrations tested, 24 hours) | core clock gene expression (3T3-L1 preadipocytes) | toxicity in reporter cells ([2]; CHX at 5 and 10 μM) | effective concentration range, dose response of bioluminescence activity ([2]; Per2-Luc U2OS cells) | circadian period length [2, 4] | clock cycling amplitude [2, 4] | Modulatory Property [2] | wound area closure (migration) (C2C12 myoblasts [3]) | Pax7 protein (C57/BL6 wild-type mice; CTX-injected TA muscle) | eMyHC staining (new myofiber formation) (C57/BL6 wild-type mice) | TOPFlash reporter activity, Wnt3a-containing media (Wnt signaling activity) | TOPFlash Wnt activity, basal condition (Wnt signaling activity) | increase of rate of proliferation (EdU) (mdx primary myoblasts) | proliferation (EdU incorporation) (C2C12 myoblasts [1]; 4 hours, 0.5 and 1 μM) | LumiCycle Result: Clock activity, Amplitude ([2]; Table 1, U2OS Per2::dLuc) | LumiCycle Result: Clock activity, Period ([2]; Table 1, U2OS Per2::dLuc) | LumiCycle Result: Clock activity (overall) ([2]; U2OS Per2::dLuc, CHX analogs screened) | increase of grip strength (mdx mice) | MyoD, Myf5 and Myogenin levels (C57/BL6 wild-type mice; CTX-injected TA muscle) |
| --- | --- | --- | --- | --- | --- | --- | --- | --- | --- | --- | --- | --- | --- | --- | --- | --- | --- | --- | --- |
| [H]/N=C(\N/C(=N/[H])NCCCCCCNC(=N)NC(=N)Nc1ccc(Cl)cc1)Nc1ccc(Cl)cc1 [CHX, chlorhexidine] | ~40% | Largely similar effects on inducing core clock genes | significant toxicity with reduced amplitude | 0.2 to 2 µM | dose-dependent reduction of period length from 0.2 to 1 μM | at a low concentration of 0.2 μM induced clock amplitude, but not at any higher concentrations examined | clock activator | significantly increased | robustly increased | substantial amount of eMyHC staining indicative of sustained nascent myofiber regeneration | significantly induced | augmented Wnt activity at basal condition | ~22% | – | – | – | – | – | – |
| CCCCCC/C=N/C(=N)NC(=N)Nc1ccc(Cl)cc1 [CM002] | – | – | – | – | shortening of period length starting at 0.2 μM that was maintained at 2 μM; also recorded: dose-dependent effect on inducing clock period length shortening | – | strong clock activator | – | robustly increased | substantial amount of eMyHC staining indicative of sustained nascent myofiber regeneration | 0.1 μM of CM002 comparable to that of CHX induction at 1 μM | augmented Wnt activity at basal condition | – | significantly increased proliferation of C2C12 myoblasts | Amplitude: Increased | Period: Shortening | strongest effect on activating circadian clock function | ~16% | elevated levels of MyoD, Myf5 and Myogenein |
